A short description of experiment [1]: Binding affinity to duplex DNA dA bulge (unknown origin) assessed as change in melting point at 50 uM by UV-Vis spectrophotometric analysis.
Experiment [2] in a line: Binding affinity to duplex DNA dG bulge (unknown origin) assessed as change in melting point at 50 uM by UV-Vis spectrophotometric analysis.
Experiment [3] can be described thus: Binding affinity to full match duplex DNA (unknown origin) assessed as change in melting point at 50 uM by UV-Vis spectrophotometric analysis.
A short description of experiment [4]: Binding affinity to duplex DNA dC bulge (unknown origin) assessed as change in melting point at 50 uM by UV-Vis spectrophotometric analysis.
A short description of experiment [5]: Binding affinity to duplex DNA dT bulge (unknown origin) assessed as change in melting point at 50 uM by UV-Vis spectrophotometric analysis.
A short description of experiment [6]: Binding affinity to 5'-Biotinylated DNA d(CTG)9-3' (unknown origin) assessed as red shifting of abosrption band at 349 nm at 10 uM by UV-spectrophotometric analysis.
Experiment [7] is described as follows: Binding affinity to 5'-biotinylated DNA d(CTG)9-3' (unknown origin) after 120 sec by SPR assay. Conditions: read-out: Kd(app). For orientation: SPR reads the build-up and loss of mass on a sensor chip optically.
The nature of experiment [8]: Binding affinity to 5'-Biotinylated DNA d(CAG)9-3' (unknown origin) at 0.63 to 10 uM after 120 sec by SPR assay.
Experiment [9] can be described thus: Binding affinity to 5'-Biotinylated DNA d(CGG)9-3' (unknown origin) at 0.63 to 10 uM after 120 sec by SPR assay.
A short description of experiment [10]: Binding affinity to 5'-Biotinylated DNA d(CCG)9-3' (unknown origin) after 120 sec by SPR assay. The settings on record: read-out: Kd(app).
A short description of experiment [11]: Binding affinity to 5'-Biotinylated DNA d(CTG)9-3' (unknown origin) by isothermal titration calorimetry. For orientation: In ITC the heat of successive injections is recorded.

Active and inactive are the calls of the source. No cut-off for these calls is given here.

Eight molecules from ChEMBL document CHEMBL3822446, “Synthesis of 1H-pyrrolo[3,2-h]quinoline-8-amine derivatives that target CTG trinucleotide repeats” (Bioorg Med Chem Lett, 2016) can be followed below.

What is called ΔTm is the shift of the melting midpoint relative to a reference.

Take `NCCC(=O)Nc1ccc2ccc3cc[nH]c3c2n1`: the thermal shift (ΔTm) in experiment [1] was determined as 1.7 °C; in [2] it was 1.7 °C; in experiment [3], 0.9 °C; in experiment [4], 3.5 °C; in experiment [5], 4.7 °C.

With `NCCCC(=O)Nc1ccc2ccc3cc[nH]c3c2n1`, the thermal shift (ΔTm) in [5] worked out at 3.6 °C.

`NCCCCC(=O)Nc1ccc2ccc3cc[nH]c3c2n1`: in [5], the ΔTm turned out to be 2.6 °C.

`NCCC(=O)Nc1ccc2ccccc2n1`: the ΔTm in experiment [5] is 0.3 °C.

For `Nc1cccc(N)n1`, the result in experiment [6] was inactive.

Regarding `NCCCNC(=O)Nc1ccc2ccccc2n1`, the shift in melting temperature (ΔTm) in experiment [5] was 1.3 °C.

`NCCCNC(=O)Nc1ccc2ccc3cc[nH]c3c2n1`: the thermal shift (ΔTm) turned out to be 1.4 °C in experiment [1]; 1 °C in experiment [2]; 0.8 °C in experiment [3]; 5.8 °C in experiment [4]; 5.2 °C in [5]. In addition, the values for the Kd in experiment [7], in experiment [10] and in [11] were 20 µM, 33 µM and 17 µM, respectively. Moreover, the result in experiment [8] and in experiment [9] was inactive. The Activity in experiment [6] came to 8 nm.

Consider `NCC(=O)Nc1ccc2ccc3cc[nH]c3c2n1`, for which the shift in melting temperature (ΔTm) in experiment [5] is 2.9 °C.
